Data on one compound can be found in US20160002297A1, “THERAPEUTIC AGENTS” (NATIONAL UNIVERSITY OF SINGAPORE, priority 2013, published 2016).

The test system of one test is ECs. The test can be described thus: Cell attachment (EC adhesion) assay. The format is cell-based. To be noted: peptide coated on plastic surface. The protocol:
96-well plates were coated with 50 μl of 1 μM ISM at 4° C. overnight. Nonspecific binding sites were blocked with 1% BSA for 2 h at 37° C. ECs were harvested and incubated in CSC basal medium containing 4 μg/ml neutralizing antibodies or control IgG for 30 min. 2[…]104 cells were plated to each well and allowed to attach for 60 min at 37° C. Attached cells were fixed by 10% formalin and stained with 0.2% crystal violet. Absorbed crystal violet was extracted by 10% acetic acid and quantified by measuring the absorbance of eluted dye at 595 nm with a microplate reader.

The subject of another test is endothelial cells (ECs). As to the kind of experiment: Apoptosis assay (Cell Death ELISA) in cultured ECs. The format is cell-based. The conditions noted are these: cultured ECs in the presence of VEGF, 24 h. The protocol:
ECs (2×10^4 cells per well) in 96-well plate were starved in 2% FBS basal CSC medium for 3 h. Cells were then incubated with peptides of various concentrations and 15 ng/ml VEGF for 24 h. Apoptosis was detected by measuring cytosolic oligonucleosome-bound DNA using a Cell Death ELISA kit purchased from Roche (USA). Plots represented the mean of 3 wells of apoptotic cells in 96 well plate (±SEM).

The target in another test is GRP78 (Homo sapiens, UniProt P11021). The test can be described thus: ELISA solid phase-binding assay for binding affinity to GRP78. To be noted: purified recombinant GRP78. The protocol: ELISA solid phase-binding assay was used to determine the dissociation constant between ISM or cyclic peptide and GRP78 as previously described with minor modification (Nishiuchi, Takagi et al. 2006). 96-well plates were coated with 50 μl of 10 nM cyclic peptide at 4° C. overnight. Nonspecific binding sites were blocked with 1% BSA for 2 h at room temperature. Increasing concentrations of GRP78 were incubated with immobilized cyclic peptide. After washing, the amount of bound GRP78 was quantified by ELISA. The value for Kd was calculated by GraphPad Prism software.
A general note: ELISA stands for enzyme-linked immunosorbent assay.

The next test concerns B16F10 melanoma. As to the kind of experiment: Mouse tumorigenesis: subcutaneous B16F10 melanoma, intravenous treatment from day 0. The format is in vivo. How it is done:
FIG. 4 Recombinant ISM and ISM derived cRKD peptide inhibit B16F10 tumour growth in vivo. A. Tumour growth curve in mice. X-axis represents the days after 5×10^5 tumour cell inoculation. Groups consisted of control mice receiving no treatment, recombinant ISM, cRKD peptide and its control-cyclic RAA peptide, given in six doses of 250 μg/mouse through tail vein injection on days 0, 2, 4, 6, 8, and 10 (5 mice in each group, each mice with one tumour). **: p<0.01,*: p<0.05, n=5. B. Tumour weight at the end of the experiment (14 days after tumour cell inoculation). C. Recombinant ISM and cRKD peptide inhibits B16F10 tumour growth. […] Paraffin sections of tumors from mice groups treated by control, ISM, cRAA and cRKD peptides were probed for microvessel density, tumor cell proliferation and apoptosis through immunofluoresence staining using anti-CD31 (A), anti-PCNA (B) and TUNEL staining (C) respectively. Representative photos are shown. (D) Quantification of microvessel density. Microvessel density is the number of microvessels per microscopic field. (E) Quantification of cell proliferation in tumor sample. Cell proliferation is presented as the percentage of PCNA positive cells out of the total number of cells (DAPI positive cells) in the microscopic field. (F) Quantification of apoptosis in tumor. Apoptosis is quantified as the percentage of TUNEL positive cells out of the total number of cells (DAPI positive cells) in the microscopic field. Plots represent the mean of 3 fields per section, 3 sections per tumor and 2 tumors per group (±SEM). ** P≦0.01, * P≦0.05; Adult 8-week-old female C57BL/6J mice were used in this study. Animal care and experimentation was carried out under the institutional guidelines issued by the local institutional animal care and use committee (IACUC; protocol 066/12). 5×10^5 B16F10 cells in 0.1 ml PBS were injected subcutaneously into the dorsal left flank of the mouse. Twenty mice were assigned into 4 different groups consisted of control mice receiving no treatment, recombinant ISM, cyclic RKD peptide and its peptide control-cyclic RAA peptide, given in six doses of 250 μg through tail vein injection on days 0, 2, 4, 6, 8, and 10 (5 mice in each group, each mice with one tumor). Health status of the mice was monitored over two weeks and visible tumor size were measured daily by calipers after 8 days until the end point (day 14). Tumor volume was calculated using the following formula: 0.52×length×(width)^2 mm^3, where the largest dimension of the tumor is considered as the length and the width is the perpendicular dimension. On day 14, mice were sacrificed, and their dorsal flank was opened and photographed to exam the vascularization. Then tumors were excised and weighed followed by either fixing in 4% paraformaldehyde for sectioning or snap-freezing in liquid nitrogen for further analysis. Paraffin-embedded tissue sections of 5 μm were deparaffinized by heating at 60° C. for 7 minutes before deparaffinizing in histoclear followed by the rehydration in graded series of alcohol (100%, 90%, 80%, and 70% ethanol in ddH2O) and finally in PBS for 5 minutes. Antigen retrieval was done in a bench-top 2100-Retriever according to the protocol of the manufacturer (Electron Microscopy Sciences, Hatfield, Pa.). The sections were blocked with 3% bovine serum albumin (BSA) in a humidified chamber for 1 hour at room temperature followed by overnight incubation with the anti-CD31 (Santa Cruz Biotechnology, Santa Cruz, Calif.), anti-PCNA antibody (Santa Cruz Biotechnology), anti-GRP78 antibody (Santa Cruz Biotechnology), or anti-His tag antibody (Santa Cruz Biotechnology) at 4° C. The following day, unbound antibody was washed with 1×PBS containing 0.1% Tween-20 (1×PBST) and incubated with the corresponding Alexafluor 568 secondary antibodies (Life Technologies) for 1.5 hours at 37° C. Sections were rinsed again and incubated for 10 minutes with DAPI at 1 μg/mL to visualize the DNA in the cell nucleus. […]

In the next test the test system is HUVECs. As to the kind of experiment: Tube formation assay on Matrigel. The format is cell-based, human. How it is done:
HUVECs (1×10^4) were pre-treated with peptides of various concentrations for 30 min before being plated onto the polymerized Matrigel (Millipore, USA) in 15-well μ-slide (Ibidi, Germany). After 4-6 h, capillary network was documented using Zeiss Axiovert200 inverted microscope (Maple Grove, Minn., USA). Tube length was quantified by measuring the length of branches in representative fields using ImageJ software. Plots represented the mean of 3 wells of tubular length in 15-well μ-slide (t SEM).

Positions of bridges follow the written chain, without caps; N, C: chain ends. Residues, ends and D or L forms follow the SMILES beside them.

For orientation: Kd means a measure of binding affinity in units of concentration. Turning to `N=C(N)NCCC[C@@H]1NC(=O)[C@@H](N)CSSC[C@@H](C(=O)O)NC(=O)[C@H](CC(=O)O)NC(=O)[C@H](CCCCN)NC1=O` [cRKD, Cyclic CRKDC peptide] (H-CRKDC-OH; disulfide 1-5; N-terminus and C-terminus assumed), the “EC attachment and adhesion” value with ECs was “mediated EC attachment and adhesion”. The “induction of EC apoptosis (pro-apoptotic activity)” value in the test on endothelial cells (ECs) is “potently induced apoptosis”. In the test on endothelial cells (ECs) (listed as RKD), the “induction of EC apoptosis (pro-apoptotic activity)” value is given as “equally potent comparing to “RKLYD””. Also, the Kd at GRP78 turned out to be 9.6 nM. In the test on B16F10 melanoma (250 μg/mouse intravenous every 2 days, days 0-10, subcutaneous B16F10), the tumor growth entry is “significantly suppressed tumor growth”. The “vascularization (blood vessels supplying the tumor)” value in the test with B16F10 melanoma (250 μg/mouse intravenous, day 14) is “obviously reduced”. Further, the “tumor angiogenesis, tumor cell proliferation and tumor cell apoptosis” value in the test with B16F10 melanoma (immunofluorescence of tumor sections) was “suppress tumor angiogenesis, tumor cell proliferation and induce tumor cell apoptosis”. The “suppression of subcutaneous mouse melanoma growth” value in the test with B16F10 melanoma (intravenous injection) is recorded as 75%. Besides, in the test with B16F10 melanoma (quantitation of tumor sections), the “increase of apoptosis in the tumor tissue (TUNEL)” value is “more than 3 fold”, the “suppression of tumor angiogenesis (tumor vessel density)” value is “more than 3 fold” and the “suppression of tumor cell proliferation (PCNA)” value is “more than 2 fold”. Further, the “apoptosis of tumor cells and tumor ECs (CD31/TUNEL double staining)” value with B16F10 melanoma (tumor sections, compared to controls) was “both tumor cells as well as tumor ECs became apoptotic”. Besides, in the test on B16F10 melanoma (tumor tissue sections), the “tumor vessel density (anti-CD31 immunofluorescence)” value was “obvious reduction of tumor vessel density”. Also, the “anti-angiogenic activity at 1 μM” value in the test with HUVECs (1 μM peptide) is “inhibited angiogenesis with similar potency”. The “inhibition of EC tube-like structure formation on Matrigel” value in the test with HUVECs (dose-dependence) is “does-dependently inhibited EC tube-like structure formation”.
